The record followed here is the NIST ThermoML archive (doi:10.1021/je9003178).

The data set can be described thus: activity coefficient (dimensionless); of the first substance listed, at infinite dilution; xn = mol fraction of the nth substance listed. As to conditions: Liquid, Chromatography, x1 = 0.

± gives the expanded uncertainty stated by the source.

As to `CC#N` [acetonitrile] + CCCCCC[N+](C)(C)C.O=S(=O)([N-]S(=O)(=O)C(F)(F)F)C(F)(F)F, the activity coefficient runs as follows: (322.65 K) 0.486 ± 0.033; (343.85 K) 0.46 ± 0.033; (352.65 K) 0.465 ± 0.033.

On to `Cc1cccc(C)c1` [1,3-dimethylbenzene] + CCCCCC[N+](C)(C)C.O=S(=O)([N-]S(=O)(=O)C(F)(F)F)C(F)(F)F, for which the activity coefficient is, setting by setting: (322.65 K) 1.8 ± 0.077; (343.85 K) 1.82 ± 0.078; (352.65 K) 1.89 ± 0.083.

Take `CC(C)O` [propan-2-ol] + CCCCCC[N+](C)(C)C.O=S(=O)([N-]S(=O)(=O)C(F)(F)F)C(F)(F)F: the activity coefficient (322.65 K) worked out at 1.69 ± 0.07, the activity coefficient (343.85 K) stood at 1.39 ± 0.051 and the activity coefficient (352.65 K) worked out at 1.33 ± 0.046.

Regarding `C1COCCO1` [1,4-dioxane] + CCn1cc[n+](C)c1.N#CN=C=[N-], the activity coefficient was found to be 0.89 ± 0.03 (322.65 K), 1.24 ± 0.04 (332.85 K) and 1.25 ± 0.04 (343.15 K).

As to `C1COCCO1` [1,4-dioxane] + CCCCCC[N+](C)(C)C.O=S(=O)([N-]S(=O)(=O)C(F)(F)F)C(F)(F)F, the activity coefficient runs as follows: (322.65 K) 0.655 ± 0.03; (343.85 K) 0.661 ± 0.03; (352.65 K) 0.68 ± 0.03.

Regarding `CCCCCCC` [heptane] + CCn1cc[n+](C)c1.N#CN=C=[N-], the activity coefficient reads like this: (322.65 K) 183 ± 8.7; (332.85 K) 159 ± 7.5; (343.15 K) 139 ± 6.6.

Regarding `CCCCCCC` [heptane] + CCCCCC[N+](C)(C)C.O=S(=O)([N-]S(=O)(=O)C(F)(F)F)C(F)(F)F, the activity coefficient was found to be 13.5 ± 0.62 (322.65 K), 12.3 ± 0.57 (343.85 K) and 11.9 ± 0.55 (352.65 K).

As to `CCCCCCCCCCCCCC` [tetradecane] + CCCCCC[N+](C)(C)C.O=S(=O)([N-]S(=O)(=O)C(F)(F)F)C(F)(F)F, the activity coefficient is, setting by setting: (322.65 K) 159 ± 7.5; (343.85 K) 101 ± 4.7; (352.65 K) 84.7 ± 4.

As to `Cc1ccccc1` [toluene] + CCn1cc[n+](C)c1.N#CN=C=[N-], the activity coefficient (322.65 K) amounted to 4.22 ± 0.19, the activity coefficient (332.85 K) is 4.21 ± 0.19 and the activity coefficient (343.15 K) was determined as 4.21 ± 0.19.

Consider `CCC=O` [propanal] + CCn1cc[n+](C)c1.N#CN=C=[N-], for which the activity coefficient (322.65 K) came to 1.4 ± 0.05, the activity coefficient (332.85 K) was 1.39 ± 0.05 and the activity coefficient (343.15 K) turned out to be 1.37 ± 0.05.

`C#CCCCC` [1-hexyne] + CCn1cc[n+](C)c1.N#CN=C=[N-]: the activity coefficient by setting is: (322.65 K) 8.7 ± 0.4; (332.85 K) 8.47 ± 0.39; (343.15 K) 8.44 ± 0.39.

For `CCCCCC` [hexane] + CCCCCC[N+](C)(C)C.O=S(=O)([N-]S(=O)(=O)C(F)(F)F)C(F)(F)F, the activity coefficient (322.65 K) came out at 9.81 ± 0.45, the activity coefficient (343.85 K) is 9.02 ± 0.41 and the activity coefficient (352.65 K) was found to be 8.85 ± 0.41.

On to `CCC(C)CC` [3-methylpentane] + CCCCCC[N+](C)(C)C.O=S(=O)([N-]S(=O)(=O)C(F)(F)F)C(F)(F)F, for which the activity coefficient (322.65 K) stood at 8.65 ± 0.4, the activity coefficient (343.85 K) was 8.09 ± 0.37 and the activity coefficient (352.65 K) was 7.88 ± 0.36.

As for `CCC[N+](=O)[O-]` [1-nitropropane] + CCCCCC[N+](C)(C)C.O=S(=O)([N-]S(=O)(=O)C(F)(F)F)C(F)(F)F, the activity coefficient stood at 0.699 ± 0.03 (322.65 K), 0.681 ± 0.03 (343.85 K) and 0.695 ± 0.03 (352.65 K).

As to `CCOC(C)=O` [ethyl acetate] + CCCCCC[N+](C)(C)C.O=S(=O)([N-]S(=O)(=O)C(F)(F)F)C(F)(F)F, the activity coefficient was determined as 0.72 ± 0.029 (322.65 K), 0.748 ± 0.029 (343.85 K) and 0.776 ± 0.028 (352.65 K).

For the molecule `Cc1ccccc1C` [1,2-dimethylbenzene] + CCCCCC[N+](C)(C)C.O=S(=O)([N-]S(=O)(=O)C(F)(F)F)C(F)(F)F, the activity coefficient (322.65 K) was found to be 1.66 ± 0.068, the activity coefficient (343.85 K) stood at 1.69 ± 0.07 and the activity coefficient (352.65 K) was found to be 1.76 ± 0.075.

In the case of `CCO` [ethanol] + CCn1cc[n+](C)c1.N#CN=C=[N-], the activity coefficient reads like this: (322.65 K) 0.78 ± 0.03; (332.85 K) 0.74 ± 0.03; (343.15 K) 0.75 ± 0.03.

In the case of `CCCCCCCCCCC` [undecane] + CCCCCC[N+](C)(C)C.O=S(=O)([N-]S(=O)(=O)C(F)(F)F)C(F)(F)F, the activity coefficient (322.65 K) is 51.2 ± 2.4, the activity coefficient (343.85 K) stood at 42 ± 2 and the activity coefficient (352.65 K) was found to be 39.7 ± 1.8.

With `CCCCCCCCCCCC` [dodecane] + CCn1cc[n+](C)c1.N#CN=C=[N-], the activity coefficient runs as follows: (322.65 K) 1410 ± 68; (332.85 K) 1290 ± 62; (343.15 K) 1180 ± 57.

Regarding `CCN(CC)CC` [triethylamine] + CCCCCC[N+](C)(C)C.O=S(=O)([N-]S(=O)(=O)C(F)(F)F)C(F)(F)F, the activity coefficient was 4.53 ± 0.21 (322.65 K), 4.83 ± 0.22 (343.85 K) and 5.04 ± 0.23 (352.65 K).

As for `CCc1ccccc1` [ethylbenzene] + CCn1cc[n+](C)c1.N#CN=C=[N-], the activity coefficient reads like this: (322.65 K) 7.43 ± 0.34; (332.85 K) 7.38 ± 0.34; (343.15 K) 7.29 ± 0.33.

As to `CC(C)CO` [2-methyl-1-propanol] + CCn1cc[n+](C)c1.N#CN=C=[N-], the activity coefficient amounted to 1.48 ± 0.06 (322.65 K), 1.4 ± 0.05 (332.85 K) and 1.33 ± 0.05 (343.15 K).

For the molecule `C1CCCCC1` [cyclohexane] + CCn1cc[n+](C)c1.N#CN=C=[N-], the activity coefficient amounted to 46 ± 2.1 (322.65 K), 42.1 ± 2 (332.85 K) and 38.7 ± 1.8 (343.15 K).

On to `c1ccsc1` [thiophene] + CCn1cc[n+](C)c1.N#CN=C=[N-], for which the activity coefficient reads like this: (322.65 K) 1.6 ± 0.06; (332.85 K) 1.51 ± 0.06; (343.15 K) 1.53 ± 0.06.

Take `CCC=O` [propanal] + CCCCCC[N+](C)(C)C.O=S(=O)([N-]S(=O)(=O)C(F)(F)F)C(F)(F)F: the activity coefficient runs as follows: (322.65 K) 0.508 ± 0.032; (343.85 K) 0.502 ± 0.032; (352.65 K) 0.505 ± 0.032.

Regarding `c1ccccc1` [benzene] + CCn1cc[n+](C)c1.N#CN=C=[N-], the activity coefficient is, setting by setting: (322.65 K) 2.57 ± 0.12; (332.85 K) 2.56 ± 0.12; (343.15 K) 2.56 ± 0.12.

Regarding `CC#N` [acetonitrile] + CCn1cc[n+](C)c1.N#CN=C=[N-], the activity coefficient is 0.8 ± 0.03 (322.65 K), 0.79 ± 0.03 (332.85 K) and 0.79 ± 0.03 (343.15 K).

On to `Cc1ccc(C)cc1` [1,4-dimethylbenzene] + CCn1cc[n+](C)c1.N#CN=C=[N-], for which the activity coefficient is, setting by setting: (322.65 K) 6.93 ± 0.32; (332.85 K) 7.05 ± 0.32; (343.15 K) 6.79 ± 0.31.

As to `C=CCCCC` [hex-1-ene] + CCCCCC[N+](C)(C)C.O=S(=O)([N-]S(=O)(=O)C(F)(F)F)C(F)(F)F, the activity coefficient by setting is: (322.65 K) 5.8 ± 0.27; (343.85 K) 5.55 ± 0.25; (352.65 K) 5.58 ± 0.26.

Take `C1CCCCCC1` [cycloheptane] + CCn1cc[n+](C)c1.N#CN=C=[N-]: the activity coefficient is, setting by setting: (322.65 K) 128 ± 6; (332.85 K) 169 ± 8; (343.15 K) 221 ± 10.

In the case of `CCCCCCCC` [octane] + CCn1cc[n+](C)c1.N#CN=C=[N-], the activity coefficient amounted to 290 ± 14 (322.65 K), 260 ± 12 (332.85 K) and 234 ± 11 (343.15 K).

On to `CC1CCCCC1` [methylcyclohexane] + CCCCCC[N+](C)(C)C.O=S(=O)([N-]S(=O)(=O)C(F)(F)F)C(F)(F)F, for which the activity coefficient reads like this: (322.65 K) 8.67 ± 0.4; (343.85 K) 7.78 ± 0.36; (352.65 K) 7.54 ± 0.35.

In the case of `CCC(C)=O` [butanone] + CCn1cc[n+](C)c1.N#CN=C=[N-], the activity coefficient reads like this: (322.65 K) 1.59 ± 0.06; (332.85 K) 1.46 ± 0.06; (343.15 K) 1.33 ± 0.05.

Take `OCC(F)(F)F` [2,2,2-trifluoroethanol] + CCCCCC[N+](C)(C)C.O=S(=O)([N-]S(=O)(=O)C(F)(F)F)C(F)(F)F: the activity coefficient (322.65 K) was found to be 0.157 ± 0.038, the activity coefficient (343.85 K) was 0.402 ± 0.034 and the activity coefficient (352.65 K) was 0.393 ± 0.034.

`CC(C)CC(C)(C)C` [2,2,4-trimethylpentane] + CCCCCC[N+](C)(C)C.O=S(=O)([N-]S(=O)(=O)C(F)(F)F)C(F)(F)F: the activity coefficient by setting is: (322.65 K) 13.1 ± 0.6; (343.85 K) 12.1 ± 0.56; (352.65 K) 11.8 ± 0.54.

`CCCCCC` [hexane] + CCn1cc[n+](C)c1.N#CN=C=[N-]: the activity coefficient was 111 ± 5.2 (322.65 K), 99.6 ± 4.7 (332.85 K) and 89.5 ± 4.2 (343.15 K).

Regarding `CCCCCCCCCCC` [undecane] + CCn1cc[n+](C)c1.N#CN=C=[N-], the activity coefficient turned out to be 1030 ± 50 (322.65 K), 926 ± 44 (332.85 K) and 834 ± 40 (343.15 K).

Regarding `CCC(=O)CC` [pentan-3-one] + CCn1cc[n+](C)c1.N#CN=C=[N-], the activity coefficient runs as follows: (322.65 K) 2.81 ± 0.13; (332.85 K) 2.84 ± 0.13; (343.15 K) 2.84 ± 0.13.

Consider `ClC(Cl)Cl` [trichloromethane] + CCCCCC[N+](C)(C)C.O=S(=O)([N-]S(=O)(=O)C(F)(F)F)C(F)(F)F, for which the activity coefficient is 0.89 ± 0.027 (322.65 K), 0.929 ± 0.026 (343.85 K) and 0.966 ± 0.026 (352.65 K).

For `CCCO` [propan-1-ol] + CCn1cc[n+](C)c1.N#CN=C=[N-], the activity coefficient amounted to 1.07 ± 0.03 (322.65 K), 1.01 ± 0.03 (332.85 K) and 0.97 ± 0.03 (343.15 K).

Regarding `Cc1ccccc1C` [1,2-dimethylbenzene] + CCn1cc[n+](C)c1.N#CN=C=[N-], the activity coefficient by setting is: (322.65 K) 5.86 ± 0.27; (332.85 K) 5.8 ± 0.27; (343.15 K) 5.75 ± 0.26.
